Measured values reported in paper PMC8722715 (Frontiers in Cell and Developmental Biology, 2021).

Experiments:
[1] = target: T1, hNaV1.7 channel (Homo sapiens, UniProt Q15858); test: Automated patch-clamp block of hNaV1.7 peak Na+ current in CHO cells; assay type: cell-based; conditions: for IC50: CHO cells stably expressing hNaV1.7, SyncroPatch 384 PE whole-cell, holding -100 mV, -10 mV test pulse 50 ms every 5 s, room temperature 18-22°C, 0.3% BSA, steady state or end of 15-min application, mean, S.E.M. and n cells; for hNaV1.7 IC50 versus WT: ratio of analogue mean IC50 to HwTx-IV WT mean IC50 on hNaV1.7
T1 construct: expressed in transfected cells
Experimental: (§1) CHO cells stably expressing the hNaV1.7 channel subtype were cultured in Dulbecco’s Modified Eagle’s Medium F-12 (DMEM/F12) supplemented with 10% fetal bovine serum, 2 mM glutamine, 200 μg/ml hygromycine B, 10 U/ml penicillin and 10 μg/ml streptomycin (Gibco, Grand Island, NY). HEK-293 cells stably expressing the hNaV1.6 channel subtype were cultured in Dulbecco’s Modified Eagle’s Medium (DMEM) supplemented with 10% fetal calf serum, 1 mM pyruvic acid, 4.5 g/L glucose, 2 mM glutamine, 800 μg/ml G418, 10 U/ml penicillin and 10 μg/ml streptomycin (Gibco, Grand Island, NY). All cell lines were incubated at 37°C in a 5% CO2 atmosphere. For electrophysiological recordings, cells were detached with trypsin, and floating single cells were diluted (∼300,000 cells/ml) in an extracellular solution containing (in mM): 140 NaCl, 4 KCl, 2 CaCl2, 1 MgCl2, 5 glucose and 10 HEPES (pH 7.4, osmolarity 298 mOsm), that was used throughout the experiments.
HwTx-IV analogues were investigated on CHO cells expressing hNav1.7 channel and HEK-293 cells expressing hNaV1.6 channel using the automated patch-clamp system from Nanion (SyncroPatch 384 PE; München, Germany). Chips with single-hole and high-resistance (∼6–7 MΩ) were used for both cell lines. Voltage pulses and whole-cell recordings were achieved using the PatchControl384 v1.5.2 software (Nanion) and the Biomek v1.0 interface (Beckman Coulter). Prior to recordings, dissociated cells were shaken at 200 RPM in a cell hotel reservoir at 10°C. After cell catching, sealing, whole-cell formation, liquid application, recording, and data acquisition were all performed sequentially and automatically. The intracellular solution contained (in mM): 110 CsF, 10 CsCl, 10 NaCl, 1 MgCl2, 1 CaCl2, 10 EGTA and 10 HEPES (pH 7.2, osmolarity 280 mOsm), and the extracellular solution was as described above. Whole-cell experiments were done at −100 mV holding potential and at room temperature (18–22°C), while currents triggered at either −10 or 0 mV test potential were sampled at 20 kHz. Stimulation frequency was set at 0.2 Hz. Each HwTx-IV analogue was prepared at various concentrations in the extracellular solution, itself supplemented with 0.3% of bovine serum albumin (BSA), also added in the control solution. […] Compound solutions were diluted 3 times in the patch-clamp recording well by adding 30–60 μl external solution, to reach the final reported concentration and the test volume of 90 μl. For establishing dose-response curves, the compounds were tested at a test potential of either −10 or 0 mV for 50 ms with a pulse every 5 s. Percentages of current inhibition were measured at steady-state of blockage or at the end of a 15-min application time.

[2] = target: T2, hNaV1.6 channel (Homo sapiens, UniProt Q9UQD0); test: Automated patch-clamp block of hNaV1.6 peak Na+ current in HEK-293 cells; assay type: cell-based; conditions: for IC50: HEK-293 cells stably expressing hNaV1.6, SyncroPatch 384 PE whole-cell, holding -100 mV, 0 mV test pulse 50 ms every 5 s, room temperature 18-22°C, 0.3% BSA, steady state or end of 15-min application, mean, S.E.M. and n cells; for hNaV1.6 IC50 versus WT: ratio of analogue mean IC50 to HwTx-IV WT mean IC50 on hNaV1.6
T2 construct: expressed in transfected cells
Experimental: as §1
HwTx-IV analogues were investigated on CHO cells expressing hNav1.7 channel and HEK-293 cells expressing hNaV1.6 channel using the automated patch-clamp system from Nanion (SyncroPatch 384 PE; München, Germany). Chips with single-hole and high-resistance (∼6–7 MΩ) were used for both cell lines. Voltage pulses and whole-cell recordings were achieved using the PatchControl384 v1.5.2 software (Nanion) and the Biomek v1.0 interface (Beckman Coulter). Prior to recordings, dissociated cells were shaken at 200 RPM in a cell hotel reservoir at 10°C. After cell catching, sealing, whole-cell formation, liquid application, recording, and data acquisition were all performed sequentially and automatically. The intracellular solution contained (in mM): 110 CsF, 10 CsCl, 10 NaCl, 1 MgCl2, 1 CaCl2, 10 EGTA and 10 HEPES (pH 7.2, osmolarity 280 mOsm), and the extracellular solution was as described above. Whole-cell experiments were done at −100 mV holding potential and at room temperature (18–22°C), while currents triggered at either −10 or 0 mV test potential were sampled at 20 kHz. Stimulation frequency was set at 0.2 Hz. Each HwTx-IV analogue was prepared at various concentrations in the extracellular solution, itself supplemented with 0.3% of bovine serum albumin (BSA), also added in the control solution. The peptides were distributed in 384-well microplates according to the number of compounds to be tested (generally four), the concentration range defined from the IC50 of wild-type HwTx-IV, and the number of cells desired for each experimental condition. Compound solutions were diluted 3 times in the patch-clamp recording well by adding 30–60 μl external solution, to reach the final reported concentration and the test volume of 90 μl. For establishing dose-response curves, the compounds were tested at a test potential of either −10 or 0 mV for 50 ms with a pulse every 5 s. Percentages of current inhibition were measured at steady-state of blockage or at the end of a 15-min application time.

T1 sequence (Q15858 whole entry): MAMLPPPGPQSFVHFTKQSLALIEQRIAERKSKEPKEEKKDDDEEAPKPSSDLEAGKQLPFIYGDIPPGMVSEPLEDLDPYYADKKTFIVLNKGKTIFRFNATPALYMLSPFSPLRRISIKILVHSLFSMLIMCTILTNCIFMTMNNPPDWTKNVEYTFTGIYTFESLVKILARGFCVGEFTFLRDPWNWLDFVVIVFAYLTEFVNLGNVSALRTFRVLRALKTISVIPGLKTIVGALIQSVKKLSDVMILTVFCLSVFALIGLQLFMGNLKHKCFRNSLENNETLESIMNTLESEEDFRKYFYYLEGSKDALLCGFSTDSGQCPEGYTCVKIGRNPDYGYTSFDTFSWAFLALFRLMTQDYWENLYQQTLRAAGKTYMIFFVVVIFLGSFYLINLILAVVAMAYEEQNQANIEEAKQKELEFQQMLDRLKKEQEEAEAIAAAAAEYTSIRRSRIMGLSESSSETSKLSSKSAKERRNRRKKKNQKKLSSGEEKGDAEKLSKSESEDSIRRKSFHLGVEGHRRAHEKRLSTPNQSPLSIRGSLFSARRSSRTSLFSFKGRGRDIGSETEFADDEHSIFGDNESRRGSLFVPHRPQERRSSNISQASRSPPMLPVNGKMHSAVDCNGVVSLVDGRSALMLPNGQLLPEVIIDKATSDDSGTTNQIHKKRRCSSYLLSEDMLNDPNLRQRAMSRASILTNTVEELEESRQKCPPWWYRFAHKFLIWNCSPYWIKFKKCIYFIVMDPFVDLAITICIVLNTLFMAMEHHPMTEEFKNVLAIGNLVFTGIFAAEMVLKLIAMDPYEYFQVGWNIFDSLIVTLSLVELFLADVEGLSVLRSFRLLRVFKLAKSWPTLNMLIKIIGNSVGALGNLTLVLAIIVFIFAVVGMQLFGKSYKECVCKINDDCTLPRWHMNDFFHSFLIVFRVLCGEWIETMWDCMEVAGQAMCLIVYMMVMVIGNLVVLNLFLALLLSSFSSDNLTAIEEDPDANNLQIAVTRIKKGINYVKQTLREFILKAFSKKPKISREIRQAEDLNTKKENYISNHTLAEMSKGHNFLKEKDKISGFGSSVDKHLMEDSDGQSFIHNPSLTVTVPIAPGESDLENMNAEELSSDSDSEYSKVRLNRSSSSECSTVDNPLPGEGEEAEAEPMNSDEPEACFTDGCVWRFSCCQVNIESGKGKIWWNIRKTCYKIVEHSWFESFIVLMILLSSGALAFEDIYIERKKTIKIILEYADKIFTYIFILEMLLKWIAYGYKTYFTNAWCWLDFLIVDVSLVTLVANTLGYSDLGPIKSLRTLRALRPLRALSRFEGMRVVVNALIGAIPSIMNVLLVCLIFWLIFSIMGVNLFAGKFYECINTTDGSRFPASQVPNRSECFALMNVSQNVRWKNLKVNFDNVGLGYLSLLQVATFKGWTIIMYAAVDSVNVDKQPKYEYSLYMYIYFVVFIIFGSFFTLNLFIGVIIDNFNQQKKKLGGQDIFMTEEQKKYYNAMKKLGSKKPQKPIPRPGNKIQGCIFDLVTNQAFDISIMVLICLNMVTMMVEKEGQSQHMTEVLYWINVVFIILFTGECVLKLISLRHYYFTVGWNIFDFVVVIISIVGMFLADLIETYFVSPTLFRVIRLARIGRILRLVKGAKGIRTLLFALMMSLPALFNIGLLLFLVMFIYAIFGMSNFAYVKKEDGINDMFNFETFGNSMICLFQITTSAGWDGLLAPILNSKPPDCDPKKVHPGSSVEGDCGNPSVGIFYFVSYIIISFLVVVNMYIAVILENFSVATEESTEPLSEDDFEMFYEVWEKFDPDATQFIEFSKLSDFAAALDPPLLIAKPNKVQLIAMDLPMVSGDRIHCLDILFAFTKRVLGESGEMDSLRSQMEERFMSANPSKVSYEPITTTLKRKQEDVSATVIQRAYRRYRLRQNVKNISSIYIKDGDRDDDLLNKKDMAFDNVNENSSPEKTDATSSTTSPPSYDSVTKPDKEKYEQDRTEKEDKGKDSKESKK
T2 sequence (Q9UQD0 whole entry): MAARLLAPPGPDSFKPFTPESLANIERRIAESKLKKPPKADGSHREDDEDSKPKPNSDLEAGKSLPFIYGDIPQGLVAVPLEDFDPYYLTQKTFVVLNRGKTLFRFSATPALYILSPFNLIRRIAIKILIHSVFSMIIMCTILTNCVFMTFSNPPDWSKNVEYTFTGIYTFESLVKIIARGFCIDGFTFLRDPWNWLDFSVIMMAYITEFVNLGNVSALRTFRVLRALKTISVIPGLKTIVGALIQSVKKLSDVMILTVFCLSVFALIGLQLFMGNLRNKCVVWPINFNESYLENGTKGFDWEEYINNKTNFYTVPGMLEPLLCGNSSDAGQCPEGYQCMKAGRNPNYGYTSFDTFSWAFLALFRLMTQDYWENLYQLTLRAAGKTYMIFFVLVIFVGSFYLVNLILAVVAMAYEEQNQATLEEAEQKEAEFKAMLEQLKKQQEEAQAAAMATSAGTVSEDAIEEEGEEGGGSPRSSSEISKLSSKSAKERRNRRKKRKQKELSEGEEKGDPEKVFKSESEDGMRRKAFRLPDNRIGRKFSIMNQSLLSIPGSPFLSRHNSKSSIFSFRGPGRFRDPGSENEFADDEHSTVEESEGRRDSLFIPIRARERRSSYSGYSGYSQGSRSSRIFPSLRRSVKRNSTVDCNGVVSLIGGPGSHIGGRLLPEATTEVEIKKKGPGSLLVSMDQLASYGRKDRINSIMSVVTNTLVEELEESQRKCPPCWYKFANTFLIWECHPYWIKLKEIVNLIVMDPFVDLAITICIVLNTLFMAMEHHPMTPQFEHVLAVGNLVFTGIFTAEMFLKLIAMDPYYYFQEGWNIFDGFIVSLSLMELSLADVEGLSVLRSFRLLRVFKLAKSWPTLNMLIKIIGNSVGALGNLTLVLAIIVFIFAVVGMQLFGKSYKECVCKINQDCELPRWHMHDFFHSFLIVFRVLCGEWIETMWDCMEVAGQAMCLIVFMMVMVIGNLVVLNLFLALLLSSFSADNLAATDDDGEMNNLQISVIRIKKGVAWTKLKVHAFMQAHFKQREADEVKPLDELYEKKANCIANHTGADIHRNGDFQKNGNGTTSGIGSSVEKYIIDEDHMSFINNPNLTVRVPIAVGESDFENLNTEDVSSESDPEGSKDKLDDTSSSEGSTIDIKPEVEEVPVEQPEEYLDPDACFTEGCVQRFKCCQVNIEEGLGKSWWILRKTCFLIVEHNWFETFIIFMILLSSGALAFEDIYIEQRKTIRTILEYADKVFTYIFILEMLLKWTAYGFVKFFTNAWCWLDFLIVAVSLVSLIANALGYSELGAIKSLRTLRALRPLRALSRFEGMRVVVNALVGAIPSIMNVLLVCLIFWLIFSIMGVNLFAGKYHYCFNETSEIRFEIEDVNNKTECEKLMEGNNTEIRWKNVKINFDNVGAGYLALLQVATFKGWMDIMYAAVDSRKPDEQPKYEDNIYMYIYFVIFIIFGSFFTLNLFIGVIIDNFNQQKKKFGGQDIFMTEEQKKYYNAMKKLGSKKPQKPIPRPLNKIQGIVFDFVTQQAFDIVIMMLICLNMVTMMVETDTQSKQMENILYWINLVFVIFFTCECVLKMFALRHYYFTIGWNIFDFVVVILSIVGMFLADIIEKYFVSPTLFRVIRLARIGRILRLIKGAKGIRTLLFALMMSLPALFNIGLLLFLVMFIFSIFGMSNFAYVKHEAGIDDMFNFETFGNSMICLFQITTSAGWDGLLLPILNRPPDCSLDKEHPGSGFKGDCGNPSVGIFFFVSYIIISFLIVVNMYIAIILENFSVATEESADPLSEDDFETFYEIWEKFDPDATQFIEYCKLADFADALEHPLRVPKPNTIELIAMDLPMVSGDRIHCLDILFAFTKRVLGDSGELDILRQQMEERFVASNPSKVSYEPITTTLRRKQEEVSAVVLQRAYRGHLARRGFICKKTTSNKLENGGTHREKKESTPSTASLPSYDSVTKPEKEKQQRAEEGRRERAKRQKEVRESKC

Compound | IC50 [1] [nM] | hNaV1.7 IC50 versus WT [1] | IC50 [2] [nM] | hNaV1.6 IC50 versus WT [2] | hNaV1.7/hNaV1.6 selectivity ratio ([1]; inverse ratio of the mean IC50 values on hNaV1.7 (CHO) and hNaV1.6 (HEK-293) of Table 1)
CC[C@H](C)[C@H](NC(=O)[C@H](CCC(N)=O)NC(=O)[C@H](Cc1ccc(O)cc1)NC(=O)[C@H](CCCCN)NC(=O)[C@@H]1CSSC[C@@H]2NC(=O)[C@H](CCC(N)=O)NC(=O)[C@H](CC(=O)O)NC(=O)[C@H](CC(N)=O)NC(=O)[C@H](CO)NC(=O)[C@@H]3CCCN3C(=O)[C@H](CC(N)=O)NC(=O)[C@@H]3CSSC[C@H](NC(=O)[C@H](C(C)C)NC(=O)[C@H](CC(C)C)NC(=O)[C@H](CCCCN)NC(=O)[C@H](CO)NC(=O)[C@H](CO)NC(=O)[C@H](CCCCN)NC(=O)[C@H](CSSC[C@H](NC(=O)[C@@H](N)CCC(=O)O)C(=O)N[C@@H](CC(C)C)C(=O)N[C@@H](CCC(=O)O)C(=O)N[C@@H]([C@@H](C)CC)C(=O)N[C@@H](Cc4ccccc4)C(=O)N[C@@H](CCCCN)C(=O)N[C@@H](C)C(=O)N3)NC2=O)C(=O)N[C@@H](CO)C(=O)N[C@@H](CCCNC(=N)N)C(=O)N[C@@H](CCCCN)C(=O)N[C@@H]([C@@H](C)O)C(=O)N[C@@H](CCCNC(=N)N)C(=O)N[C@@H](Cc2c[nH]c3ccccc23)C(=O)N1)C(=O)O [HwTx-IV CterCOOH] | 176 | 17.81 | 1230 | 5.43 | 
CC[C@H](C)[C@H](NC(=O)[C@H](CCC(N)=O)NC(=O)[C@H](Cc1ccc(O)cc1)NC(=O)[C@H](CCCCN)NC(=O)[C@@H]1CSSC[C@@H]2NC(=O)[C@H](CCC(N)=O)NC(=O)[C@H](CC(=O)O)NC(=O)[C@H](CC(N)=O)NC(=O)[C@H](CO)NC(=O)[C@@H]3CCCN3C(=O)[C@H](CC(N)=O)NC(=O)[C@@H]3CSSC[C@H](NC(=O)[C@H](C(C)C)NC(=O)[C@H](CC(C)C)NC(=O)[C@H](CCCCN)NC(=O)[C@H](CO)NC(=O)[C@H](CO)NC(=O)[C@H](CCCCN)NC(=O)[C@H](CSSC[C@H](NC(=O)[C@@H](N)CCC(=O)O)C(=O)N[C@@H](CC(C)C)C(=O)N[C@@H](CCCCN)C(=O)N[C@@H]([C@@H](C)CC)C(=O)N[C@@H](Cc4ccccc4)C(=O)N[C@@H](CCCCN)C(=O)N[C@@H](C)C(=O)N3)NC2=O)C(=O)N[C@@H](CO)C(=O)N[C@@H](CCCNC(=N)N)C(=O)N[C@@H](CCCCN)C(=O)N[C@@H]([C@@H](C)O)C(=O)N[C@@H](CCCNC(=N)N)C(=O)N[C@@H](Cc2c[nH]c3ccccc23)C(=O)N1)C(=O)O [HwTx-IV E^4K/CterCOOH] | 11.9 | 1.20 | 136 | 0.60 | 
CC[C@H](C)[C@H](NC(=O)[C@H](CCC(N)=O)NC(=O)[C@H](Cc1ccc(O)cc1)NC(=O)[C@H](CC(N)=O)NC(=O)[C@@H]1CSSC[C@@H]2NC(=O)[C@H](CCC(N)=O)NC(=O)[C@H](CC(=O)O)NC(=O)[C@H](CC(N)=O)NC(=O)[C@H](CO)NC(=O)[C@@H]3CCCN3C(=O)[C@H](CC(N)=O)NC(=O)[C@@H]3CSSC[C@H](NC(=O)[C@H](C(C)C)NC(=O)[C@H](CC(C)C)NC(=O)[C@H](CCCCN)NC(=O)[C@H](CO)NC(=O)[C@H](CO)NC(=O)[C@H](CCCCN)NC(=O)[C@H](CSSC[C@H](NC(=O)[C@@H](N)CCC(=O)O)C(=O)N[C@@H](CC(C)C)C(=O)N[C@@H](CCC(=O)O)C(=O)N[C@@H]([C@@H](C)CC)C(=O)N[C@@H](Cc4ccccc4)C(=O)N[C@@H](CCCCN)C(=O)N[C@@H](C)C(=O)N3)NC2=O)C(=O)N[C@@H](CO)C(=O)N[C@@H](CCCNC(=N)N)C(=O)N[C@@H](CCCCN)C(=O)N[C@@H]([C@@H](C)O)C(=O)N[C@@H](CCCNC(=N)N)C(=O)N[C@@H](Cc2c[nH]c3ccccc23)C(=O)N1)C(N)=O [HwTx-IV K^32N] | 5750 | 581 | > 1000 | >4.4 | 
CC[C@H](C)[C@H](NC(=O)[C@H](CCC(N)=O)NC(=O)[C@H](Cc1ccc(O)cc1)NC(=O)[C@H](CCCCN)NC(=O)[C@@H]1CSSC[C@@H]2NC(=O)[C@H](CCC(N)=O)NC(=O)[C@H](CC(=O)O)NC(=O)[C@H](CC(N)=O)NC(=O)[C@H](CO)NC(=O)[C@@H]3CCCN3C(=O)[C@H](CC(N)=O)NC(=O)[C@@H]3CSSC[C@H](NC(=O)[C@H](C(C)C)NC(=O)[C@H](CC(C)C)NC(=O)[C@H](CCCCN)NC(=O)[C@H](CO)NC(=O)[C@H](CO)NC(=O)[C@H](CCCCN)NC(=O)[C@H](CSSC[C@H](NC(=O)[C@@H](N)CCC(=O)O)C(=O)N[C@@H](CC(C)C)C(=O)N[C@@H](CCC(=O)O)C(=O)N[C@@H]([C@@H](C)CC)C(=O)N[C@@H](Cc4ccccc4)C(=O)N[C@@H](CCCCN)C(=O)N[C@@H](C)C(=O)N3)NC2=O)C(=O)N[C@@H](CO)C(=O)N[C@@H](CCCNC(=N)N)C(=O)N[C@@H](CCCCN)C(=O)N[C@@H]([C@@H](C)O)C(=O)N[C@@H](CCCNC(=N)N)C(=O)N[C@@H](Cc2c[nH]c3ccccc23)C(=O)N1)C(=O)N[C@@H](CCCCN)C(=O)O [HwTx-IV K^36/CterCOOH] | 29 | 2.93 | 1330 | 5.89 | above 46
CC[C@H](C)[C@H](NC(=O)[C@H](CCC(N)=O)NC(=O)[C@H](Cc1ccc(O)cc1)NC(=O)[C@H](CCCCN)NC(=O)[C@@H]1CSSC[C@@H]2NC(=O)[C@H](CCC(N)=O)NC(=O)[C@H](CC(=O)O)NC(=O)[C@H](CC(N)=O)NC(=O)[C@H](CO)NC(=O)[C@@H]3CCCN3C(=O)[C@H](CC(N)=O)NC(=O)[C@@H]3CSSC[C@H](NC(=O)[C@H](C(C)C)NC(=O)[C@H](CC(C)C)NC(=O)[C@H](CCCCN)NC(=O)[C@H](CO)NC(=O)[C@H](CO)NC(=O)[C@H](CCCCN)NC(=O)[C@H](CSSC[C@H](NC(=O)[C@@H](N)CCC(=O)O)C(=O)N[C@@H](CC(C)C)C(=O)N[C@@H](CCC(=O)O)C(=O)N[C@@H]([C@@H](C)CC)C(=O)N[C@@H](Cc4ccccc4)C(=O)N[C@@H](CCCCN)C(=O)N[C@@H](C)C(=O)N3)NC2=O)C(=O)N[C@@H](CO)C(=O)N[C@@H](CCCNC(=N)N)C(=O)N[C@@H](CCCCN)C(=O)N[C@@H](Cc2c[nH]c3ccccc23)C(=O)N[C@@H](CCCNC(=N)N)C(=O)N[C@@H](Cc2c[nH]c3ccccc23)C(=O)N1)C(N)=O [HwTx-IV T^28W] | 114 | 11.53 |  |  | 
